We go through two substances from patent US20250121025A1, “SCALP-DERIVED PEPTIDES ALLEVIATING HAIR LOSS SYMPTOMS” (NEWTREE CO., LTD, priority 2023, published 2025).

Experiment [1] has as its system Wnt signaling pathway proteins (p-GSK-3β and β-catenin). The experiment can be described thus: Western blot of Wnt signaling pathway proteins in DP cells. The class given is cell-based, human. As to conditions: 0.1, 1, 10 μM, 24 hours. The protocol: (§1) Specifically, the expressions of proteins involved in major signaling pathways related to hair growth were analyzed when HaCaT and DP cells were treated with RKLW and RQLW at 0.1, 1, and 10 μM and cultured for 24 hours.
(§2) Furthermore, the protein immunoblot (Western blot) results showing differential expressions and phosphorylation of proteins involved in Wnt signaling pathway in HaCaT and DP cells are shown in FIG. 6. […] When DP cells were treated with RKLW or RQLW, the expression of p-GSK-3β was not increased, but the expression of β-catenin was increased, meaning that in DP cells, RKLW or RQLW accumulates β-catenin through a pathway other than GSK-3β to activate Wnt signaling.
A general note: A western blot detects proteins with antibodies after separation by electrophoresis.

In experiment [2] the test system is cell cycle marker proteins (Cyclin D1, CDK4, Cyclin E1, and CDK2). The experiment can be described thus: Western blot of cell cycle marker proteins in HaCaT cells. The class given is cell-based, human. As to conditions: 0.1, 1, 10 μM, 24 hours. The protocol: (§3) Cell cycle: maintaining the G1 phase of the cell cycle of scalp skin cells plays an important role in maintaining scalp health.
(§4) Specifically, the expressions of Cyclin D/CDK4 and Cyclin E/CDK2, which activate the G1 phase, were analyzed when HaCaT and DP cells were treated with RKLW and RQLW at 0.1, 1, and 10 µM and cultured for 24 hours, and the results are shown in FIG. 8.

Experiment [3] deals with androgen receptor (AR) and its target proteins (DKK-1 and TGF-β). The experiment can be described thus: Western blot of AR and its target proteins in DP cells. It counts as cell-based, human. Particulars: 0.1, 1, 10 μM, 24 hours. The protocol:
(§5) The expression and phosphorylation of protein markers involved in alopecia-related signal transduction pathways were evaluated after treatment with peptides (RKLW and RQLW).
(§6) DHT-AR and Wnt/beta-catenin pathway: An androgen receptor (AR) is a protein that binds to dihydrotestosterone (DHT), a representative inducer of androgenetic alopecia, and when the AR is activated by binding to DHT, Dickkopf-1 (DKK-1) and transforming growth factor beta (TGF-β) are expressed and promote alopecia. In addition, DKK-1, which is expressed by the activation of the AR, suppresses the Wnt signaling pathway involved in the development and growth of hair follicles, and TGF-β induces alopecia by suppressing the growth of hair follicle cells.
as §1
(§7) The protein immunoblot (Western blot) results of the expression of the AR and its target proteins (DKK-1 and TGF-β) in HaCaT and DP cells are shown in FIG. 5. […] When DP cells were treated with RKLW or RQLW, the expression levels of both the AR and its target protein TGF-β was reduced.

The test system of experiment [4] is cell cycle marker proteins (Cyclin D1, CDK4, Cyclin E1, and CDK2). Nature of the experiment: Western blot of cell cycle marker proteins in DP cells. It counts as cell-based, human. Particulars: 0.1, 1, 10 μM, 24 hours. The protocol:
as §3, §4

For the next experiment, the system named is HaCaT cells. The experiment can be described thus: Cell viability (CCK-8) in human keratinocytes. It counts as cell-based. The protocol: (§8) In order to evaluate the efficacy of peptide treatment (RKLW and RQLW) to promote skin cell proliferation, human keratinocytes and dermal papilla (DP) cells were treated with RKLW and RQLW at 0.1, 1, and 10 μM. After being cultured for 24 and 48 hours, cells were treated with Cell Counting Kit-8 (CCK-8) to measure cell viability, and the results are shown in FIG. 3.

Experiment [5] concerns androgen receptor (AR) and its target proteins (DKK-1 and TGF-β). Nature of the experiment: Western blot of AR and its target proteins in HaCaT cells. The class given is cell-based, human. As to conditions: 0.1, 1, 10 μM, 24 hours. The protocol:
as §5, §6, §1, §7

Experiment [6] deals with mitochondrial apoptosis signaling pathway proteins (Bax, Bcl-2, Caspase-3, and PARP). The experiment can be described thus: Western blot of mitochondrial apoptosis signaling proteins in DP cells. The class given is cell-based, human. As to conditions: 0.1, 1, 10 μM, 24 hours. The protocol: (§9) Mitochondrial apoptosis: Bax is a pro-apoptotic protein that promotes apoptosis, and Bcl-2 is a pro-survival protein that suppresses apoptosis; the balance between these two proteins is important in regulating apoptosis.
(§10) Specifically, the expressions of proteins involved in mitochondrial apoptotic signaling pathways were analyzed when HaCaT and DP cells were treated with RKLW and RQLW at 0.1, 1, and 10 μM and cultured for 24 hours, and the results are shown in FIG. 7.

Experiment [7] deals with dermal papilla (DP) cells. Nature of the experiment: Cell viability (CCK-8) in dermal papilla cells. It counts as cell-based, human. The protocol:
as §8

Experiment [8] relates to mitochondrial apoptosis signaling pathway proteins (Bax, Bcl-2, Caspase-3, and PARP). The experiment can be described thus: Western blot of mitochondrial apoptosis signaling proteins in HaCaT cells. As to conditions: 0.1, 1, 10 μM, 24 hours. It counts as cell-based, human. The protocol:
as §9, §10

In experiment [9] the test system is Wnt signaling pathway proteins (p-GSK-3β and β-catenin). Nature of the experiment: Western blot of Wnt signaling pathway proteins in HaCaT cells. The class given is cell-based, human. As to conditions: 0.1, 1, 10 μM, 24 hours. The protocol:
as §1, §2

Turning to RKLW (listed as Homo sapiens), in experiment [1], the “expression of p-GSK-3β” value was “not increased” and the “expression of β-catenin” value is reported as “increased”. In experiment [2], the “expression level of Cyclin D/CDK4” value was “increased” and the “expression level of Cyclin E/CDK2” value is “increased”. Further, in experiment [3], the “expression level of AR” value is given as “reduced” and the “expression level of TGF-β” value is reported as “reduced”. Further, in experiment [4], the “expression level of Cyclin D/CDK4” value was “increased” and the “expression level of Cyclin E/CDK2” value is recorded as “did not affect”. Further, in the experiment on HaCaT cells (24 and 48 hours, CCK-8), the “cell viability of HaCaT cells” value is recorded as “did not show statistical significance”. In [5], the AR expression result is listed as “no significant change”, the “expression level of DKK-1” value is “decreased” and the “expression level of TGF-β” value is recorded as “decreased”. The “expression ratio of Bax/Bcl-2” value in experiment [6] is listed as “unable to regulate”. Moreover, the “cell viability of dermal papilla cells” value in experiment [7] (1 and 10 μM, 24 hours) is reported as “significantly increased cell viability”. Also, in [7] (48 hours), the “treatment concentration at which cell viability was significantly increased” value was ≤ 10 µM. Further, the “effect of suppressing apoptosis” value in experiment [8] is “relatively insignificant effect”. Further, in experiment [9], the “expression level of p-GSK-3β” value is listed as “increased” and the “expression level of β-catenin” value is “increased”.

Turning to RQLW (listed as Homo sapiens), in experiment [1], the “expression of p-GSK-3β” value is on record as “not increased” and the “expression of β-catenin” value is recorded as “increased”. Moreover, in [2], the “expression level of Cyclin D/CDK4” value is given as “increased” and the “expression level of Cyclin E/CDK2” value is “increased”. Besides, in experiment [3], the “expression level of AR” value is recorded as “reduced” and the “expression level of TGF-β” value was “reduced”. In experiment [4], the “expression level of Cyclin D/CDK4” value is “increased” and the “expression level of Cyclin E/CDK2” value is listed as “did not affect”. In the experiment with HaCaT cells (after 24 hours), the “concentration at which cell viability was significantly increased” value is ≥ 100 µM. For the same substance, the “concentration at which cell viability was significantly increased” value in the experiment with HaCaT cells (after 48 hours) was ≥ 10 µM. Besides, in [5], the AR expression result is “no significant change”, the “expression level of DKK-1” value is “decreased” and the “expression level of TGF-β” value is “decreased”. Also, the “expression ratio of Bax/Bcl-2” value in [6] is recorded as “unable to regulate”. Further, the “cell viability of dermal papilla cells” value in experiment [7] (1 and 10 μM, 24 hours) is “significantly increased cell viability”. Also, the “cell viability of dermal papilla cells” value in experiment [7] (48 hours) is “no significant difference”. In addition, in experiment [8], the “effect of suppressing apoptosis” value is “showed an effect of suppressing apoptosis”, the “expression ratio of Bax/Bcl-2” value was “tended to decrease”, the “protein level of PARP” value was “tended to decrease” and the “protein level of cleaved caspase-3” value is reported as “tended to decrease”. In experiment [9], the “expression level of p-GSK-3β” value was “increased” and the “expression level of β-catenin” value is given as “increased”.
